Measured values reported in ChEMBL document CHEMBL6103565, “Current strategies in design and synthesis of antifungals hybrid and chimeric diazine derivatives” (Bioorg Med Chem, 2025).
Converted amounts (≈) assume the structure as drawn. One block for each compound: values may come before it.

Experiments:
Format in all cases: functional
Candida albicans [1] = assay: Antifungal activity against Candida albicans assessed as diameter of zone inhibition by disc diffusion method
Aspergillus niger [2] = assay: Antifungal activity against Aspergillus niger assessed as zone of inhibition by disc diffusion method
Pichia kudriavzevii = assay: Antifungal activity against Candida krusei ATCC 6258
Candida albicans [3] = assay: Antifungal activity against Candida albicans ATCC 10231
Nakaseomyces glabratus = assay: Antifungal activity against Candida glabrata ATCC 90030
Candida parapsilosis = assay: Antifungal activity against Candida parapsilosis ATCC 22019; settings: Lodderomyces parapsilosis
Candida tropicalis = assay: Antifungal activity against Candida tropicalis assessed as inhibition of fungal growth
Aspergillus niger [4] = assay: Antifungal activity against Aspergillus niger assessed as inhibition of fungal growth
Candida albicans [5] = assay: Antifungal activity against Candida albicans assessed as zone of inhibition by disc diffusion method
Saccharomyces cerevisiae [6] = assay: Antimicrobial activity against Saccharomyces cerevisiae assessed as zone of inhibition by disc diffusion method
Saccharomyces cerevisiae [7] = assay: Antimicrobial activity against Saccharomyces cerevisiae assessed as zone of inhibition
Candida albicans [8] = assay: Antifungal activity against Candida albicans
Candida albicans [9] = assay: Antifungal activity against Candida albicans assessed as zone of inhibition by serial dilution and disc diffusion method
Candida albicans [10] = assay: Antifungal activity against Candida albicans assessed as diameter of zone inhibition

SMILES: COC(=O)c1c(C(=O)OC)c2cccnn2c1C(=O)c1ccc(C)cc1
- inhibition zone (IZ) (Candida albicans [1]): 18 mm

SMILES: CCOC(=O)c1cc(C(=O)c2ccc(C)cc2)n2ncccc12
- inhibition zone (IZ) (Candida albicans [1]): 18 mm

SMILES: CC1=CC2C(C#N)CC(C(=O)c3ccc(Br)cc3)N2C=N1 (stereo not given)
- inhibition zone (IZ) (Candida albicans [1]): 22 mm

SMILES: CCOC(=O)c1cc(C(=O)c2ccc(C)cc2)n2nc(C)c3ccccc3c12
- inhibition zone (IZ) (Candida albicans [1]): 18 mm

SMILES: COc1ccc(C2c3c([nH]c(=O)[nH]c3=O)OC3N=CN(c4cc(C)ccn4)C(=N)C32)cc1 (stereo not given)
- inhibition zone (IZ) (Aspergillus niger [2]): 10 mm

SMILES: CCOC(=O)c1c(C(=O)OCC)c2cc(C)ncn2c1C(=O)c1ccc(Br)cc1
- inhibition zone (IZ) (Candida albicans [1]): 22 mm

- MIC (Pichia kudriavzevii): 0.78 µg/mL (≈ 2.74 µM)
- MIC50 (Candida albicans [3]): 0.78 µg/mL (≈ 2.74 µM)
- MIC (Nakaseomyces glabratus): 0.78 µg/mL (≈ 2.74 µM)
- MIC (Candida parapsilosis): 0.78 µg/mL (≈ 2.74 µM)
SMILES: Nc1nc2ccccc2nc1NC1CC(C(=O)O)=CC1=O (stereo not given)

- MIC (Candida tropicalis): 110 µM (≈ 31.4 µg/mL)
- MIC (Aspergillus niger [4]): 110 µM (≈ 31.4 µg/mL)
SMILES: Nc1nc(-c2ccccn2)cc(-c2cnc(Cl)cn2)n1

SMILES: C(=N\c1ncnc2[nH]ccc12)/c1ccccc1
- inhibition zone (IZ) (Candida albicans [5]): 15 mm
- inhibition zone (IZ) (Saccharomyces cerevisiae [6]): 13 mm

SMILES: Fc1ccccc1/C=N/c1ncnc2[nH]ccc12
- inhibition zone (IZ) (Candida albicans [5]): 15 mm
- inhibition zone (IZ) (Saccharomyces cerevisiae [6]): 13 mm

SMILES: Fc1ccc(/C=N/c2ncnc3[nH]ccc23)cc1
- inhibition zone (IZ) (Candida albicans [5]): 15 mm
- inhibition zone (IZ) (Saccharomyces cerevisiae [6]): 13 mm

- MIC (Candida tropicalis): 97.3 µM (≈ 32 µg/mL)
- MIC (Aspergillus niger [4]): 97.3 µM (≈ 32 µg/mL)
SMILES: Nc1nc(-c2ccc([N+](=O)[O-])cc2)cc(-c2cnc(Cl)cn2)n1

SMILES: Fc1cccc(/C=N/c2ncnc3[nH]ccc23)c1
- inhibition zone (IZ) (Candida albicans [5]): 15 mm
- inhibition zone (IZ) (Saccharomyces cerevisiae [6]): 21 mm

SMILES: CCOC(=O)c1c(C(=O)OCC)c2cc(C)ncn2c1C(=O)c1ccc([N+](=O)[O-])cc1
- inhibition zone (IZ) (Candida albicans [1]): 28 mm

SMILES: COc1ccc(/C=N/Nc2ncnc3[nH]ccc23)cc1OC
- inhibition zone (IZ) (Saccharomyces cerevisiae [7]): 24 mm

SMILES: CC1=NN2C(C(=O)c3ccc(C)cc3)CC(C#N)C2c2ccccc21 (stereo not given)
- inhibition zone (IZ) (Candida albicans [1]): 18 mm

- MIC (Candida albicans [8]): 250 µg/mL
SMILES: Cl.FC(F)(F)c1nnc2n1CCNC2

SMILES: COc1ccc(C2c3c([nH]c(=O)[nH]c3=O)OC3N=CN(C(N)=O)C(=N)C32)cc1 (stereo not given)
- inhibition zone (IZ) (Aspergillus niger [2]): 10 mm

SMILES: CC1=NN(c2ccccc2)C2N=C3SCCN3C(c3ccccc3[N+](=O)[O-])C12 (stereo not given)
- inhibition zone (IZ) (Aspergillus niger [2]): 24 mm

SMILES: O=c1c(C(O)c2ccccc2)c2sc(S)c(-c3ccccc3)n2c2nc(-c3ccccc3)c(-c3ccccc3)n12 (stereo not given)
- inhibition zone (IZ) (Aspergillus niger [2]): 15 mm

SMILES: COC(=O)c1c(C(=O)OC)c2c3ccccc3cnn2c1C(=O)c1ccc(C)cc1
- inhibition zone (IZ) (Candida albicans [1]): 18 mm

SMILES: CN(C)c1ccc(/C=N/c2c(N)n(Cc3ccccc3)c(=O)[nH]c2=O)cc1
- inhibition zone (IZ) (Candida albicans [5]): 10 mm

- MIC (Candida tropicalis): 107 µM (≈ 35.2 µg/mL)
- MIC (Aspergillus niger [4]): 107 µM (≈ 35.2 µg/mL)
SMILES: COc1cc(-c2cc(-c3cnc(Cl)cn3)nc(N)n2)ccc1O

- MIC (Candida tropicalis): 110 µM (≈ 30.1 µg/mL)
- MIC (Aspergillus niger [4]): 110 µM (≈ 30.1 µg/mL)
SMILES: Nc1nc(-c2cnc(Cl)cn2)cc(-c2ccc[nH]2)n1

SMILES: COc1ccc(OC)c(/C=N/Nc2ncnc3[nH]ccc23)c1
- inhibition zone (IZ) (Candida albicans [9]): 30 mm
- inhibition zone (IZ) (Saccharomyces cerevisiae [7]): 24 mm

- MIC (Candida tropicalis): 50 µM (≈ 16 µg/mL)
- MIC (Aspergillus niger [4]): 50 µM (≈ 16 µg/mL)
SMILES: Nc1nc(-c2cnc(Cl)cn2)cc(-c2ccc(F)cc2F)n1

SMILES: Cc1cccc(-c2nc3ccccc3nc2N2CCN(Cc3ccccc3)CC2)c1
- inhibition zone (IZ) (Candida albicans [10]): 14 mm

SMILES: O=[N+]([O-])c1ccc(/C=N/c2ncnc3[nH]ccc23)cc1
- inhibition zone (IZ) (Candida albicans [5]): 15 mm
- inhibition zone (IZ) (Saccharomyces cerevisiae [6]): 13 mm

SMILES: Cc1ccc(C2c3c([nH]c(=O)[nH]c3=O)OC(NC(=O)/C=C/C(=O)O)C2C#N)cc1 (stereo not given)
- inhibition zone (IZ) (Aspergillus niger [2]): 10 mm

- MIC (Candida tropicalis): 45.4 µM (≈ 16 µg/mL)
- MIC (Aspergillus niger [4]): 45.4 µM (≈ 16 µg/mL)
SMILES: Nc1nc(-c2cnc(Cl)cn2)cc(-c2ccc(Cl)cc2Cl)n1

SMILES: COC(=O)C1C(C(=O)OC)C(C(=O)c2ccccc2)N2N=C(c3ccc(Cl)cc3)C=CC12 (stereo not given)
- inhibition zone (IZ) (Candida albicans [10]): 25 mm

SMILES: CC1=NN(c2ccccc2)C2N=C3SCCN3C(c3cccc(Cl)c3)C12 (stereo not given)
- inhibition zone (IZ) (Aspergillus niger [2]): 24 mm

SMILES: CC1=NN(c2ccccc2)C2N=C3SCCN3C(c3ccc(F)cc3)C12 (stereo not given)
- inhibition zone (IZ) (Aspergillus niger [2]): 24 mm

- MIC (Candida tropicalis): 110 µM (≈ 32 µg/mL)
- MIC (Aspergillus niger [4]): 110 µM (≈ 32 µg/mL)
SMILES: Nc1nc(-c2cnc(Cl)cn2)cc(-c2cccs2)n1

SMILES: CC1=CC2C(C#N)CC(C(=O)c3ccc([N+](=O)[O-])cc3)N2C=N1 (stereo not given)
- inhibition zone (IZ) (Candida albicans [1]): 24 mm

SMILES: COC(=O)c1c(C(=O)OC)c2c3ccccc3c(C)nn2c1C(=O)c1ccc(C)cc1
- inhibition zone (IZ) (Candida albicans [1]): 18 mm

SMILES: CC1=NN2C(C(=O)c3ccc(C)cc3)C3C(=O)N(c4ccccc4)C(=O)C3C2c2ccccc21 (stereo not given)
- inhibition zone (IZ) (Candida albicans [1]): 18 mm

- MIC (Candida tropicalis): 97.3 µM (≈ 31 µg/mL)
- MIC (Aspergillus niger [4]): 97.3 µM (≈ 31 µg/mL)
SMILES: Nc1nc(-c2ccc(Cl)cc2)cc(-c2cnc(Cl)cn2)n1

SMILES: COc1ccccc1/C=N/Nc1ncnc2[nH]ccc12
- inhibition zone (IZ) (Candida albicans [9]): 30 mm

SMILES: COc1ccc(C2c3c([nH]c(=O)[nH]c3=O)OC3N=CN(c4ccccc4N)C(=N)C32)cc1 (stereo not given)
- inhibition zone (IZ) (Aspergillus niger [2]): 10 mm

- MIC (Candida albicans [8]): 250 µg/mL (≈ 654 µM)
SMILES: O=C(CN1CCn2c(nnc2C(F)(F)F)C1)Nc1nc2ccccc2s1

SMILES: COc1cccc(/C=N/Nc2ncnc3[nH]ccc23)c1
- inhibition zone (IZ) (Candida albicans [9]): 30 mm
- inhibition zone (IZ) (Saccharomyces cerevisiae [7]): 24 mm
